What is called solubility is the concentration that dissolves in the medium under given conditions. The low end stands for a poorly soluble substance, the high end for a readily soluble substance.

“Also recorded” adds a separate entry of the source.

Series [1] has as its target T1, 5-HT2A serotonin receptor (Homo sapiens, UniProt P28223). The note with it: cited from earlier work.
In a further series the test system is JC virus. The note with it: cited from earlier work.
The next series has as its system 5-HT2 receptor. The note with it: glaucoma patients; cited from earlier work.
Series [2] concerns the target T2, 5-HT2A (Rattus norvegicus, UniProt P14842). The note with it: in vivo; cited from earlier work.
The target of series [3] is T2, 5-HT2A. On the set-up: host or cells: diabetic rats, in vivo. The note with it: spontaneously hypertensive rats; cited from earlier work.
Series [4] can be described thus: Effect of milling and compression upon APD125 Form I (PXRD). The class given is physicochemical. As to the method: Micronized APD125 Form I, was ground using a mortar and pestle, with samples withdrawn at 1-min, 5-min and 10-min time points for PXRD analyses to evaluate the impact of grinding upon the solid-state form of APD125 Form I. PXRD patterns were obtained pre- and post-milling. Additionally, micronized APD125 Form I, was compressed at 2 kp, 5 kp and 10 kp for 1 min per sample using a Carver press. The samples were then removed from the Carver press and lightly broken up using a mortar and pestle, prior to PXRD analysis to evaluate the impact of compression upon the solid-state form of APD125 Form I. PXRD patterns were obtained pre- and post-compression.
(§1) PXRD measurements were obtained using a Philips (PANalytical) X'Pert PRO theta/theta diffractometer (EQ 0233) equipped with an X'Celerator RTMS detector and utilizing copper Kα radiation, operating at 45 kV and 40 mA. The instrument radius was 239.5 mm, the mask filter was 20 mm, the soller slit was 0.04 radians, and a nickel filter and sample spinning were used during data acquisition. The application and instrument control software used were X'Pert Data Collector®, version 2.0c and XPERT-PRO®, version 1.6, respectively. The samples were scanned from 5° to 40° 2θ in continuous mode, using a step size of 0.0167° 2θ.

Series [5] is described as follows: Methyl cellulose optimization: Form I to Form II conversion in water pastes (PXRD). It is filed as physicochemical. As to the method: In a small scintillation vial, 152.13 mg of micronized APD125 Form I, was spiked with sufficient deionized water to make a paste; the weight of the water added, 844.60 mg was recorded, and the resulting mixture was stirred using a spatula to obtain a paste. The resulting sample, post-collection of an initial PXRD pattern, was capped, wrapped in tinfoil and stored at 40° C. until the next day, when a second PXRD pattern was obtained.
Using another small scintillation vial, 2.1183 g of micronized APD125 Form I, was mixed with 3.3619 g of a 0.5% w/v methyl cellulose to obtain a paste, which was immediately sampled for PXRD analysis to verify starting APD125 solid-state form, post-methyl cellulose addition. The remaining sample in the scintillation vial was split into two portions, placed in capped, parafilm-wrapped scintillation vials, which were then wrapped in tinfoil and stored at 40° C. and room temperature, respectively. […]
APD125 micronized Form I/PVP (1:8) blend, weighing 3.0081 g and containing 0.5% w/w methyl cellulose, was mixed with 3.71277 g of water to form a paste. After sampling the paste for an initial PXRD pattern, the remaining paste was split into two portions, placed in capped, parafilm-wrapped scintillation vials, which were then wrapped in tinfoil and stored at 40° C. and room temperature, respectively. PXRD patterns were collected at initial (t=0), 1-day, 7-day and 21-day time points.
For each blend, materials were dispensed (minus magnesium stearate) into a glass vial and blended for about 5 minutes. Magnesium stearate was added and the mixture was blended an additional 2 minutes. The final blend was compacted into standard round concave tablets ( 5/16″ diameter) with a total tablet weight of 200 mg and hardness of 10 kp using a Carver press. For each batch of tablets, several were crushed using a mortar and pestle to obtain a fine powder, from which a small sample was taken for PXRD analysis to confirm the initial APD125 polymorphic form. The remaining powder was weighed into a Qorpak® bottle, and ca. 50% w/w deionized water was added. The resulting mixture was stirred using a micro-spatula to wet the powder and form a paste. A Teflon® lid was screwed on tightly, and the prepared samples were stored in a 40° C. oven.
as §1, with “respectively. The API-based paste samples were” for “respectively. The samples were”, “of 0.0167° 2θ and a counting time of 40.005 seconds. The tablet granulation samples were scanned from 2° to 15° 2θ in continuous mode, using a step size of 0.0167° 2θ and a counting time of 1063.625 s.” for “of 0.0167° 2θ.”

A short description of series [6]: Aqueous solubility of APD125. The class given is physicochemical.
A short description of series [7]: Stability of APD125 in solution. The class given is physicochemical. The note with it: in solution at 25° C.
In series [8] the target is T1, 5-HT2A serotonin receptor. The experiment in a line: 5-HT2A serotonin receptor inverse agonist activity. The class given is biochemical.
In series [9] the target is T1, 5-HT2A serotonin receptor. The experiment in a line: Phase 1 trials: waking EEG. The class given is in vivo, humans.
Series [10] has as its target T1, 5-HT2A serotonin receptor. Description: Afternoon nap model of insomnia in normal volunteers. It is filed as in vivo, humans.
The target in series [11] is T1, 5-HT2A serotonin receptor. Description: Phase 2 trial: sleep maintenance versus placebo. The class given is in vivo, humans.
Series [12] deals with T3, 5-HT2A (Homo sapiens, UniProt P28223). Also noted: host or cells: patients, in vivo. The note with it: 24 months of treatment; cited from earlier work.
Series [13] has as its target T2, 5-HT2A. Also noted: host or cells: diabetic rats, in vivo. The note with it: rats, cited from earlier work.
Series [14] addresses T3, 5-HT2A. Also noted: host or cells: human patients, in vivo. The note with it: humans, lumbar disc herniation; cited from earlier work.

T1 sequence (P28223 whole entry): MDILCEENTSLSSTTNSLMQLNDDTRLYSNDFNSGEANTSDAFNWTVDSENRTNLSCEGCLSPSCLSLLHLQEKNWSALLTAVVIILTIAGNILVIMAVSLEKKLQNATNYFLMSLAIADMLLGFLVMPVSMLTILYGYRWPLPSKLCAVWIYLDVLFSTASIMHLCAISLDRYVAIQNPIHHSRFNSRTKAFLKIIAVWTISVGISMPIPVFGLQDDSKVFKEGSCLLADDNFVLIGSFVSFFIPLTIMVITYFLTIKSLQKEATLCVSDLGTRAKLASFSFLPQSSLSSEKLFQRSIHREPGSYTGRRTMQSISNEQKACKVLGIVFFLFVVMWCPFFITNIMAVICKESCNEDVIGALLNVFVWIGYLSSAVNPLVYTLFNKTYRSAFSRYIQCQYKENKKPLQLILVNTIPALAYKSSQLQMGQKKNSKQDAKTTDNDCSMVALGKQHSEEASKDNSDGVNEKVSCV
T2 sequence (P14842 whole entry): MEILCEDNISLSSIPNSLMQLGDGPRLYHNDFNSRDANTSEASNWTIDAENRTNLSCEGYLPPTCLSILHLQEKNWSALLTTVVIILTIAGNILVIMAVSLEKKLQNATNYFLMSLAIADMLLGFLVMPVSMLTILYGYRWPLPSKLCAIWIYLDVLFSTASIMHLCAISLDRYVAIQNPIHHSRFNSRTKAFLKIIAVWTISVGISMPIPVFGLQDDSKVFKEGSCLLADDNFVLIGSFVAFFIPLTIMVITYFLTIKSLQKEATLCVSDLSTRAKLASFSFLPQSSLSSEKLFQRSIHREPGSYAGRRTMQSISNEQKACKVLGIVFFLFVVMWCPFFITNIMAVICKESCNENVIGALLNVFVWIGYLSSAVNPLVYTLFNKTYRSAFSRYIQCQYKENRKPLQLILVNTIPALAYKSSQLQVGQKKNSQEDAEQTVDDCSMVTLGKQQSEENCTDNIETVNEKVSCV
T3 sequence (P28223 whole entry): as the sequence (P28223 whole entry) above

With `Cc1nc2sccn2c(=O)c1CCN1CCC(=C(c2ccc(F)cc2)c2ccc(F)cc2)CC1` [ritanserin], the “activity at 5-HT2A” value in [1] is reported as “inverse agonist activity”. For the same compound, the “JC virus infection of human glial cells” value in the series on JC virus is on record as “inhibited”.
Turning to `O=C(c1ccc(F)cc1)C1CCN(CCn2c(=O)[nH]c3ccccc3c2=O)CC1` [ketanserin], the “activity at 5-HT2A” value in series [1] was “inverse agonist activity”. In the series on 5-HT2 receptor, the IOP entry was “significantly lower IOP”. The “JC virus infection of human glial cells” value in the series on JC virus is “inhibited”. In addition, the protection during heatstroke result on 5-HT2A [2] was “protect against circulatory shocks, intracranial hypertension and cerebral ischemia during heatstroke”. Further, the blood pressure entry at 5-HT2A [3] is “stabilize blood pressure”.
For the compound `COc1ccc(NC(=O)Nc2ccc(F)cc2F)cc1-c1c(Br)cnn1C` [APD125 Form I, 1-[3-(4-bromo-2-methyl-2H-pyrazol-3-yl)-4-methoxy-phenyl]-3-(2,4-difluoro-phenyl)-urea], the “PXRD pattern after compression” value in [4] (compressed at 2 kp, 5 kp and 10 kp) is reported as “all substantially comprise Form I; also recorded: consistent with APD125 Form I”. Besides, in series [4] (mortar and pestle for 1 minute, 5 minutes and 10 minutes, listed as micronized APD125 Form I), the “PXRD pattern after grinding” value is given as “all substantially comprise Form I; also recorded: No significant changes in the PXRD patterns were observed”. Also, the “polymorphic form by PXRD” value is recorded as “no evidence of conversion to Form II” in [5] (aqueous 0.5% w/w methyl cellulose at 40° C. after 10 days (FIG. 8, text)); “substantially converted to Form II” in series [5] (aqueous 0.5% w/w methyl cellulose, room temperature and 40° C. after 16 days (FIG. 8 legend)); “converted to Form II within 24 hours” in series [5] (paste in water alone at 40° C.); “substantially converted to Form II” in series [5] (paste in water alone at room temperature and 40° C. after 24 h (FIG. 9 legend)); “did not convert to Form II” in [5] (suspended in aqueous 0.5% w/w methyl cellulose, 21 days at room temperature).
For the compound `COc1ccc(NC(=O)Nc2ccc(F)cc2F)cc1-c1c(Br)cnn1C` [APD125, 1-[3-(4-bromo-2-methyl-2H-pyrazol-3-yl)-4-methoxy-phenyl]-3-(2,4-difluoro-phenyl)-urea], the solubility in series [6] (aqueous buffer, phosphate buffer (about pH 7)) is ≤ 10 µg/mL. For the same compound, in series [6] (deionized water, water), the solubility was ≤ 10 µg/mL. Also, the solubility in [6] (saline (about 0.9% NaCl solution), saline or isotonic) was ≤ 10 µg/mL. Moreover, in series [6] (simulated gastric fluid, 0.01 N HCl (about pH 2)), the solubility was ≤ 10 µg/mL. Besides, the stability in solution result in series [7] is given as “somewhat labile”. Moreover, the “activity at the 5-HT2A serotonin receptor” value in series [8] is “potent and selective 5-HT2A serotonin receptor inverse agonist”. In series [9], the “dose of maximal effects on waking EEG” value was 40 to 80 mg and the “effects on waking EEG” value is reported as “vigilance-lowering effects”. Further, the “time of peak effects after dosing” value in series [9] (waking EEG) is 2 to 4 h. In series [10] (human, in vivo), the REM sleep result is on record as “at the expense of REM sleep”; the “microarousals, number of sleep stage shifts and number of awakenings after sleep onset” value is listed as “decreased”; the sleep onset latency result is “not decreased”. Further, in [10] (primarily during the early part of sleep), the “slow wave sleep and associated parameters” value was “increased slow wave sleep and associated parameters in a dose-dependent manner”. Moreover, the “measurements of sleep maintenance” value in [11] (compared to placebo) was “statistically significant improvements”. In addition, the “next day cognitive effects” value in [11] (in vivo) is recorded as “without any limiting next day cognitive effects”.
Turning to `COc1cccc(CCc2ccccc2OCC(CN(C)C)OC(=O)CCC(=O)O)c1` (stereo not shown) [sarpogrelate], in the series on 5-HT2 receptor, the IOP result is “significantly lower IOP”. In addition, the “urinary albumin excretion level” value at 5-HT2A [12] is on record as “significantly reduced”. Moreover, the thermal induced pain result at 5-HT2A [13] (intraperitoneal administration) is given as “significant analgesic effect”. For the same compound, the inflammatory pain entry on 5-HT2A [13] (intrathecal or intraperitoneal administration) is on record as “significant analgesic effect”. Besides, at 5-HT2A [14], the “lower back pain, leg pain and numbness associated with sciatica” value is reported as “effective treatment”.

These data come from patent US9801856B2, “Composition of a 5-HT2A serotonin receptor modulator useful for the treatment of disorders related thereto” (Arena Pharmaceuticals, Inc., priority 2008, dated 2017).
